This series relates to platelet factor-4 (PF-4). Description: Thrombus formation by PF-4, FeCl3 induced VT model, combination with PLAVIX (Example 26). Format: in vivo, BALB/c mice. The following applies: ISIS 404071 20 mg/kg, PLAVIX 0 mg/kg. As for the experimental part: The combination of ISIS 404071 and PLAVIX was evaluated in the FeCl3 induced VT mouse model. Four groups of eight BALB/c mice, weighing approximately 25 g each, were treated with 6.25 mg/kg, 12.50 mg/kg, 25.00 mg/kg, or 50.00 mg/kg of PLAVIX. Mice were given two doses of PLAVIX on day one and one dose of PLAVIX on day two, two hours before surgery.
After the last dose of ISIS 404071, mice were treated with 6.25 mg/kg, 12.50 mg/kg, 25.00 mg/kg, or 50.00 mg/kg of PLAVIX. Two doses of PLAVIX were administered to the mice on day one and one dose of PLAVIX was administered on day two, two hours before surgery.
Two control groups of eight BALB/c mice, weighing approximately 25 g each, were not treated with ISIS 404071 or PLAVIX. […] Thrombus formation was induced with FeCl3 in all of the mice except the first […] control groups. All mice were anesthetized with 150 mg/kg of ketamine mixed with 10 mg/kg of xylazine administered by intraperitoneal injection.
After 3 minutes of exposure, the filter paper was removed. Thirty minutes after the filter paper application, a fixed length of the vein containing the thrombus was dissected out for platelet analysis.
Real-time PCR quantification of PF-4 was used to quantify platelets in the vena cava as a measure of thrombus formation. […] Therefore, the combination of anti-platelet therapy with Factor 11 ASO increases antithrombotic activity. Data is presented as percent of PF-4 mRNA as compared to the PBS+ FeCl3 control.

For the substance “ISIS 404071: antisense oligonucleotide targeted to murine Factor 11 mRNA, TGGTAATCCACTTTCAGAGG, target start site 869 (chemistry not given here)”, the “PF-4 mRNA, percent as compared to the PBS + FeCl3 control (thrombus formation)” value is listed as 40% (+ FeCl3) and 27% (− FeCl3).

For the origin of these results see patent US20230263822A1, “MODULATION OF FACTOR 11 EXPRESSION” (Ionis Pharmaceuticals, Inc., priority 2008, published 2023).
